Laboratory results: patent US10449182B2 (The Regents of the University of California, priority 2012, dated 2019)

Legend:
[1] = tested on: p21; experiment: p21 levels by immunoblotting in ACHN and/or 786-O cells; assay type: cell-based, human; conditions: 24 h of culture with compound, immunoblot; also: key: + denotes inhibition of p21 secretion or the absence of p21; − denotes the presence of p21
Method: Cells harvested after growth to confluence in 10% serum-containing media and treatment with compounds of the invention were washed with phosphate buffered saline (PBS) and lysed in lysis buffer composed of 50 mM HEPES, 1% Triton X-100, 10 mM sodium pyrophosphate, 100 mM sodium fluoride and 4 mM EDTA at 4° C. Cell lysates were pelleted. Supernatants were electrophoresed and immunoblotted. Membranes were blocked in 5% nonfat dry milk for 30 min at room temperature and probed with p21 antibody. Membranes were then probed with horseradish peroxidase tagged anti-mouse or anti-rabbit IgG antibodies (diluted 3:20,000 and 3:10,000 in 5% nonfat dry milk, respectively) for 2 h at room temperature. Signal was detected using enhanced chemiluminescence (ECL) solutions.

[2] = target: T1, Raf-1 (Homo sapiens, UniProt P04049); experiment: Recombinant Raf kinase inhibition (ADP-Glo Kinase Assay), Raf-1; assay type: biochemical; conditions: 10 nM Raf kinase, 1 μM MEK-1, 10 μM ATP, 22° C., 1 hour
T1 construct: Full length recombinant Raf-I and b-Raf (V600E) kinases; purchased US Biological (Swampscott, Mass.)
Method: (§1) All assays were performed using 10 nM Raf kinase, 1 μM MEK-1, 10 μM ATP, at 22° C. for 1 hour. Inhibitors were dissolved in DMSO and IC50 values were obtained by measuring the change in the ADP production (luminescent signal intensity) at various inhibitor concentrations as compared to the control. Individual data sets were performed in duplicate and each IC50 value was determined from three separate experiments. The data were fit to a saturation curve using KaleidaGraph graphing program (Synergy Software) to determine the IC50 values.

[3] = target: T2, b-Raf (V600E) (Homo sapiens, UniProt P15056, V600E); experiment: Recombinant Raf kinase inhibition (ADP-Glo Kinase Assay), b-Raf (V600E); assay type: biochemical; conditions: 10 nM Raf kinase, 1 μM MEK-1, 10 μM ATP, 22° C., 1 hour
T2 construct: Full length recombinant Raf-I and b-Raf (V600E) kinases; purchased US Biological (Swampscott, Mass.)
T2 sequence (P15056 whole entry V600E): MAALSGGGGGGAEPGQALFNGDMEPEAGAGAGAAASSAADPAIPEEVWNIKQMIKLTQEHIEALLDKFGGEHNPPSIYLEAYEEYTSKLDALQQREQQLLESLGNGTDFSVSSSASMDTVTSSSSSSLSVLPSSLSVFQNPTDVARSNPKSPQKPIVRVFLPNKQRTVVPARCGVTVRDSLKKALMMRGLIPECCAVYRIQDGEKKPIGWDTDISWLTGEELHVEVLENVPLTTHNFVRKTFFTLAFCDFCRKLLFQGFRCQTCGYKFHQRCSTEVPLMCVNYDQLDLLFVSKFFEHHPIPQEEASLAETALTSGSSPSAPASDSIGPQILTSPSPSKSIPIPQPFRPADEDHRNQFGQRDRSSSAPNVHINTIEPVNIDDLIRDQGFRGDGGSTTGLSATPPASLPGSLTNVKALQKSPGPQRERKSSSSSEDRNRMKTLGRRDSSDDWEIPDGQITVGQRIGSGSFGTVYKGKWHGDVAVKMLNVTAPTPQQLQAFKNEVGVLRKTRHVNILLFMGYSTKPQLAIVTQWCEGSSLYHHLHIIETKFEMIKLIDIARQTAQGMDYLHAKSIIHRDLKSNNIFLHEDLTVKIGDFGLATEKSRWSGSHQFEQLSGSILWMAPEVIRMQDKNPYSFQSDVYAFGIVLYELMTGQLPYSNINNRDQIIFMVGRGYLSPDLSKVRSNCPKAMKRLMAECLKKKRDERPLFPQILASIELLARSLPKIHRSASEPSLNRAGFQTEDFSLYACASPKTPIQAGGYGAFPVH
Method: as §1

[4] = target: T3, human sEH (Homo sapiens, UniProt P34913); experiment: Inhibitory activity against human sEH; assay type: biochemical; conditions: read-out: % Inhibition (IC50) Human sEH
T3 sequence (P34913 1-555): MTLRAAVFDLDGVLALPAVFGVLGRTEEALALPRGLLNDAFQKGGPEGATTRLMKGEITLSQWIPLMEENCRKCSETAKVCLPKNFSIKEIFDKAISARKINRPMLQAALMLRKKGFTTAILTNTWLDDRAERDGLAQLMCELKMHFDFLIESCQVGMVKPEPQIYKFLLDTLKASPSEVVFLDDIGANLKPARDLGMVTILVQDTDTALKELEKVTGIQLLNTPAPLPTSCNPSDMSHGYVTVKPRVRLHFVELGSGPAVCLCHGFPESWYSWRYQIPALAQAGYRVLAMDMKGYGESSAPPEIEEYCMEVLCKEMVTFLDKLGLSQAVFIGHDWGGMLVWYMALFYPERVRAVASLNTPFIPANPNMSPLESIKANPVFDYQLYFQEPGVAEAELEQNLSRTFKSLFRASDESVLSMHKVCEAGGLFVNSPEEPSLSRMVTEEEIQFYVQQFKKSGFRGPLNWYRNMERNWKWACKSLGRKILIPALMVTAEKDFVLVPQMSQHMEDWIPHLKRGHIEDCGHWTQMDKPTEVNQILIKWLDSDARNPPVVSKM

[5] = tested on: p21 mRNA; experiment: Reverse transcriptase-PCR of p21 mRNA in 786-O cells (FIG. 3A); assay type: cell-based, human; conditions: 10 μM, RT-PCR
Method: (§2) FIG. 3. […] 786-O cells were grown to confluence in 10% serum containing media and: (A) treated with Compound 2288 at 10 μM concentration or vehicle (DMSO) for the indicated time. mRNA was isolated and RT-PCR was performed as described in Materials and Methods. GAP DH is a loading control. (B) exposed to CHX (35 μM), Compound 2288 (10 μM). CHX (10 μg/ml) and Compound 2288 (10 μM), or vehicle (DMSO) for the indicated times and immunoblotting was performed with the antibodies indicated. β-actin is a loading control. The experiments shown are representative of at least 3 separate experiments.
Total mRNA was collected and cDNA synthesized using a Qiagen RNeasykit (Valencia, Calif.) following manufacture's protocol. The PCR primers used are 5′-[…]-3′ (p21 sense), 5′-[…]-3′ (p21 antisense), 5′-[…]-3′ (GAPDH sense), and 5′-[…]-3′ (GAPDH antisense). Reverse-transcribed cDNA was subjected to 40 cycles. Thermal cycling conditions are as follows: denaturation for 30 seconds at 94° C. annealing for 30 seconds at 56.5° C. and elongation for 1 minute at 72° C. DNA was analyzed by 2% ethidium bromide agarose gel electrophoresis.

[6] = tested on: p21; experiment: Immunofluorescence staining of p21 in 786-O cells (FIG. 5); assay type: cell-based, human; conditions: 10 μM, 24 h, confocal microscopy
Method: FIG. 5. […] 786-O cells were grown to confluence on 8-well chamber slides and treated with either Compound 2288 at 10 μM concentration or vehicle (DMSO) for 24 h. Immunofluorescence staining of p21 was visualized by confocal microscopy as described in Materials and Methods. p21 is green and the nuclear dye (DAPI) is blue. The experiment shown is representative of at least 3 separate experiments.
After appropriate treatments in 8 well chamber slides. immunofluorescence was conducted as described previously.^19 Briefly, the cells were fixed in 2% paraformaldehyde and blocked in the blocking buffer. After blocking, the cells were incubated with appropriate antibody, incubated with anti-mouse or anti-rabbit IgG (H+L), F(ab′)2 Fragment (Alexa Fluor® 488 Conjugate), and coverslipped with vectashield with DAPI. The specimens were examined by confocal microscopy.

[7] = tested on: p21; experiment: p21 protein stability with CHX, immunoblotting in 786-O cells (FIG. 3B); assay type: cell-based, human; conditions: 10 μM with CHX
Method: as §2
(§3) Immunoblotting was performed as previously described.^19 Briefly, after appropriate treatments, the cells were washed with phosphate buffered saline (PBS) and lysed in lysis buffer. Cell lysates were immunoblotted. Membranes were blocked in 5% nonfat dry milk for one hour at room temperature and probed with appropriate antibodies. Membranes were then probed with horseradish peroxidase tagged anti-mouse or anti-rabbit IgG antibodies. Signal was detected using ECL solutions.

[8] = tested on: p21; experiment: Immunoblotting of p21 and other proteins in normal kidney and cancer cells (FIG. 2); assay type: cell-based, human; conditions: HK2, 786-O, Caki-1, ACHN and Hey cells, 24 h, immunoblot
Method: FIG. 2. […] The cells were harvested and immunoblotted with the antibodies indicated. (A) p21 and (B) p-Akt, p-ERK, t-Akt, t-ERK and p53 proteins are shown. β-actin is a loading control for each membrane. The experiment shown is representative of at least 3 separate experiments.
as §3

[9] = tested on: NCI60 cell lines; experiment: Cell viability TCA assay in NCI60 cell lines (FIG. 4); assay type: cell-based, human; conditions: 48 h
Method: FIGS. 4A, 4B & 4C. […] TCA assay was conducted in the NCI60 cell lines treated with Compound 2288 as described in the Materials and Methods. Compound 2288 inhibited various cancer cell growth.
TCA assay was conducted by NCI Developmental Therapeutics Program. Briefly, cells were plated in 96-well plates, and after appropriate treatments, the plates are incubated for an additional 48 h at 37° C., 5% CO2. 95% air, and 100% relative humidity. The assay was terminated by the addition of cold TCA. Cells were fixed by the addition of 50 μl of cold 50% (w/v) TCA (final concentration, 10% TCA) and incubated for 60 minutes at 4° C. The plates were washed water and air dried. Sulforhodamine B (SRB) solution (100 μl) at 0.4% (w/v) in 1% acetic acid was added to each well, and plates were incubated for 10 minutes at room temperature. After staining, the plates were washed with 1% acetic acid and air dried. Bound stain was subsequently solubilized with 10 mM trizma base, and the absorbance was read on an automated plate reader at a wavelength of 515 nm.

[10] = tested on: p21; conditions: Inoue et al. (2011) Cancer Biol. Ther.; cited from earlier work

Row | SMILES | p21 inhibition [1] | further results
1 | CCC(=O)N1CCC(NC(=O)NC23CC4CC(CC(C4)C2)C3)CC1 [Compound 1163] | − | 
2 | O=C(NC12CC3CC(CC(C3)C1)C2)N[C@H]1CC[C@H](Oc2ccc(C(=O)O)cc2)CC1 [Compound 1471] | − | 
3 | CS(=O)(=O)N1CCC(NC(=O)Nc2ccc(OC(F)(F)F)cc2)CC1 [Compound 1709] | − | 
4 | O=C(Nc1ccc(OC(F)(F)F)cc1)N[C@H]1CC[C@H](Oc2ccc(C(=O)O)cc2)CC1 [Compound 1728] | − | 
5 | CCC(=O)N1CCC(NC(=O)Nc2ccc(OC(F)(F)F)cc2)CC1 [Compound 1770] | − | 
6 | N#Cc1ccc(O[C@H]2CC[C@H](NC(=O)Nc3ccc(Cl)c(C(F)(F)F)c3)CC2)cc1 [Compound 2182] | + | 
7 | O=C(Nc1ccc(Cl)c(C(F)(F)F)c1)N[C@H]1CC[C@H](Oc2ccc(C(=O)O)cc2)CC1 [Compound 2221] | − | IC50 [2]: 4300 ± 400 nM
8 | CNC(=O)c1ccc(O[C@H]2CC[C@H](NC(=O)NC34CC5CC(CC(C5)C3)C4)CC2)cc1 [Compound 2225] | − | 
9 | CNC(=O)c1ccc(O[C@H]2CC[C@H](NC(=O)Nc3ccc(OC(F)(F)F)cc3)CC2)cc1 [Compound 2227] | − | 
10 | CNC(=O)c1ccc(O[C@H]2CC[C@H](NC(=O)Nc3ccc(Cl)c(C(F)(F)F)c3)CC2)cc1 [Compound 2253] | − | IC50 [3]: > 10000 nM; IC50 [4]: 0.5 nM; IC50 [2]: 340 ± 40 nM
11 | CNC(=O)c1cc(O[C@H]2CC[C@H](NC(=O)Nc3ccc(Cl)c(C(F)(F)F)c3)CC2)ccn1 [Compound 2278] | + | 
12 | O=C(Nc1ccc(Cl)c(C(F)(F)F)c1)N[C@H]1CC[C@H](Oc2ccc(C(F)(F)F)cn2)CC1 [Compound 2288] | + | p21 mRNA expression [5]: decreases p21 mRNA expression; cytosolic p21 [6]: decreases cytosolic p21; p21 protein stability [7]: no effect on p21 protein stability; levels of other proteins (p-Akt, p-ERK, t-Akt, t-ERK, p53) [8]: not levels of other proteins; p21 protein level [8]: consistently decreases p21 protein level; cancer cell growth [9]: inhibits cancer cell growth; IC50 [4]: 0.5 nM
13 | CNC(=O)c1ccc(OC2CCC(NC(=O)Nc3ccc(Cl)c(C(F)(F)F)c3)CC2)cn1 (stereo not shown) [Compound 2316] | + | IC50 [3]: 200 ± 150 nM; IC50 [4]: 0.5 nM; IC50 [2]: 175 ± 20 nM
14 | CNC(=O)c1cc(O[C@H]2CC[C@@H](NC(=O)Nc3ccc(Cl)c(C(F)(F)F)c3)CC2)ccn1 [Compound 2319] | + | IC50 [4]: 0.5 nM
15 | CCN(CC)C(=O)c1cc(O[C@H]2CC[C@H](NC(=O)Nc3ccc(Cl)c(C(F)(F)F)c3)CC2)ccn1 [Compound 2574] | + | 
16 | CNC(=O)c1cc(O[C@H]2CC[C@H](NC(=O)Nc3ccc(OC(F)(F)F)cc3)CC2)ccn1 [Compound 2575] | − | 
17 | CNC(=O)c1cc(Oc2ccc(NC(=O)Nc3ccc(OC(F)(F)F)cc3)cc2)ccn1 [Compound 2576] | + | IC50 [4]: 0.5 nM; IC50 [2]: 30 nM
18 | CCN(CC)C(=O)c1cc(O[C@H]2CC[C@H](NC(=O)Nc3ccc(OC(F)(F)F)cc3)CC2)ccn1 [Compound 2577] | + | 
19 | O=C(Nc1ccc(OC(F)(F)F)cc1)N[C@H]1CC[C@H](Oc2ccnc(C(=O)N3CCCC3)c2)CC1 [Compound 2578] | − | 
20 | N#Cc1ccc(O[C@H]2CC[C@H](NC(=O)Nc3ccc(C(F)(F)F)cc3)CC2)cc1 [Compound 2579] | + | 
21 | N#Cc1ccc(O[C@H]2CC[C@H](NC(=O)Nc3ccc(OC(F)(F)F)cc3)CC2)cc1 [Compound 2581] | + | 
22 | CNC(=O)c1cc(Oc2ccc(NC(=O)Nc3ccc(Cl)c(C(F)(F)F)c3)cc2)ccn1 [Sorafenib, reference compound] | + | p21 inhibition (reported) [10]: potent and stable p21 inhibitor
